Patent publication US20260250325A1, “Antiviral Polypeptide Membrane Fusion Inhibitor, and Preparation Method and Application Thereof” (priority 2025, published 2026)
Where a SMILES comes first, the peptide text is derived from it. The star is where a group is joined. Succinyl(4-O-cholesteryl) = CC(C)CCC[C@@H](C)[C@H]1CC[C@H]2[C@@H]3CC=C4C[C@@H](OC(=O)CCC(=O)*)CC[C@]4(C)[C@H]3CC[C@]12C; X1 = CC(C)CCCC(C)C1CCC2C3CC=C4CC(OC(=O)CCC(=O)*)CCC4(C)C3CCC12C

Tests used:
hPIV-N51 (139-189) = molecular target: T1, hPIV-N51 (139-189) (Human parainfluenza 3 virus, UniProt P06828); assay: SPR affinity to hPIV-N51 coupled on CM5 chip; type: binding
T1 construct: hPIV-N51 (139-189)
T1 sequence (P06828 139-189): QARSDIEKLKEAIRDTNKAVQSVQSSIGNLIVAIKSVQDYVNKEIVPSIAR
Method: (§1) hMPV and hPIV were two viruses having a typical Class I fusion protein-F protein. An F protein precursor F0 was cracked into F1 and F2 subunits. […] When the compound flowed through a chip surface, changes in an SPR signal were monitored in real time, binding and dissociation processes were recorded, and a binding rate constant (ka) and a dissociation rate constant (kd) were further obtained through kinetic analysis, thereby calculating an equilibrium dissociation constant (KD=kd/ka).
(§2) A CM5 chip with a catalog number 29149603, an amino coupling reagent kit with a catalog number BR100050, HBS-EP+Buffer (10×), sodium acetate (pH 4.0), and a 10 mM glycine-HCl buffer (pH 2.0) were all purchased from GE Health.
(§3) CM5 chip coupling: Channels 2 and 4 of the CM5 chip were activated for 7 min by using a freshly-prepared mixture of 50 mM Hydroxy succinimide (NHS) and 200 mM 1-(3-Dimethylaminopropyl)-3-ethylcarbodiimide (EDC) according to 1:1; and then, hMPV-N46 or hPIV-N51 was diluted and dissolved with sodium acetate with 4.0 pH to a concentration of 30 μM, with a flow rate of 10 μl/min and time of 600 s. An experimental buffer was HBS-EP+buffer (1×). Finally, the chip was blocked with 1 M ethanolamine. The instrument was set to a temperature of 25° C.
(§4) Affinity detection: the buffer used in the experiment was HBS-EP+buffer (1×), and a multi-cycle dynamic mode was used. Channels 1 and 3 of the chip served as blank reference channels; polypeptides to be detected sequentially flowed through Channels 2 and 4 at concentrations of 0 μM, 0.04 µM, 0.12 µM, 0.37 μM, 1.11 µM, 3.33 µM, 10 µM, and 30 μM; the flow rate was 30 μl/min, binding was performed for 180 s, and dissociation was performed for 120 s. Finally, the chip was regenerated by injecting 10 mM glycine (pH 2.0). The instrument was set to a temperature of 25° C.

hMPV-N46 (127-172) = molecular target: T2, hMPV-N46 (127-172) (Human metapneumovirus, UniProt Q6WB98); assay: SPR affinity to hMPV-N46 coupled on CM5 chip; type: binding
T2 construct: hMPV-N46 (127-172)
T2 sequence (Q6WB98 127-172): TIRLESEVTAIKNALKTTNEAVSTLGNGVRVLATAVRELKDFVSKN
Method: as §1, §2, §3, §4

hMPV A2 = type: cell-based; conditions: Vero cells, plaque reduction
Method: (§5) African green monkey kidney cells (Vero) were sourced from the ATCC, with catalog number CCL-81. The cells were cultured in a DMEM culture solution in which 10% fetal bovine serum, 1% non-essential amino acids, 1% sodium pyruvate, 1% L-glutamine, 100 U/ml penicillin, and 100 μg/ml streptomycin were added.
(§6) A hMPV plaque experiment culture medium consisted of an Opti-MEM culture solution added with 1% non-essential amino acids, 100 U/mL penicillin, and 100 μg/mL streptomycin.
(§7) hMPV virus strains A2 and B1 were constructed by WuXi App Tec.
(§8) This study used a plaque reduction experiment to detect the in-vitro activity of a test sample against the hMPV virus strains A2 and B1.
(§9) The test sample and an experimental system were tested at 8 concentrations in duplicated wells. The Vero cells were digested with trypsin and then diluted to a concentration of 400,000 cells per milliliter by using a cell culture solution containing 2% serum. The diluted cells were added to a 96-well cell test board, with 100 μL per well, corresponding to 40000 cells per well. The cells were cultured overnight in a 37° C. incubator with 5% CO2.
(§10) On the second day, the test sample was diluted in an experimental culture medium at a fold ratio. The sample diluted at a fold ratio and an equal volume of virus (approximately 200 PFU per well) were well mixed and incubated at 33° C. in 5% CO2 for 1 h. Then, the culture solution in the 96-well cell test board was discarded, the sample virus mixed solution (100 μL) was added to the 96-well cell culture plate, and incubated at 37° C. in 5% CO2 for 2 hours. After 2 h, the sample virus mixed solution was discarded, 200 μL of an experiment culture medium containing the test sample with a corresponding concentration was added, and the culture solution contained 0.8% CMC and 5 μg/ml trypsin. A final concentration of DMSO in the culture solution was 0.5%. A system control antibody was directly added to the experiment culture solution containing 0.8% CMC and 5 μg/ml trypsin. A cell control (cells, without compound treatment or viral infection) and a viral control (cell infection virus, without compound treatment) were set. The cells were cultured for 1 day in the 33° C. incubator with 5% CO2.
(§11) The cells were fixed with 4% paraformaldehyde, and then permeabilization was performed with 0.5% Triton X-100. After the plate was washed with DPBS, a hMPV specific antibody (1:2000 dilution) was added and incubated at 37° C. for 1.5 h. Then, a secondary antibody (1:1000 dilution) was added and incubated at 37° C. for 1 hour. The secondary antibody was discarded, a TrueBlue solution was added, dyeing was performed for approximately 10 minutes; and the plate was washed with running water and then air-dried, and the number of spots in each well was counted by using a microplate imaging counter.
(§12) Raw data was used for analyzing the antiviral activity of the test samples. A calculation formula was shown as follows.
(§13) % inhibition rate=100−(sample value-cell control average value)/(virus control average value-cell control average value)×100
(§14) Non-linear fitting analysis was performed on the inhibition rate of the sample by using GraphPad Prism (version 10), so as to calculate an EC50 value for the sample. A fitting formula was log (inhibitor) vs. response-Variable slope (four parameters).

hMPV B1 = type: cell-based; conditions: Vero cells, plaque reduction
Method: as §5, §6, §7, §8, §9, §10, §11, §12, §13, §14

Work on CC[C@H](C)[C@H](NC(=O)[C@H](CCCCN)NC(=O)[C@H](CCCCN)NC(=O)[C@H](CC(C)C)NC(=O)[C@H](CO)NC(=O)[C@H](CCC(N)=O)NC(=O)[C@H](CC(N)=O)NC(=O)[C@@H](NC(=O)[C@H](CCCCN)NC(=O)[C@H](CCCCN)NC(=O)[C@H](CC(=O)O)NC(=O)[C@H](Cc1ccccc1)NC(=O)[C@H](CCC(=O)O)NC(=O)[C@@H](NC(=O)[C@H](CCCCN)NC(=O)[C@H](CCCCN)NC(=O)[C@H](CC(N)=O)NC(=O)[C@@H](NC(=O)[C@H](CC(C)C)NC(=O)[C@H](CCC(=O)O)NC(=O)[C@H](CC(=O)O)NC(=O)[C@H](CO)NC(C)=O)C(C)C)[C@@H](C)CC)[C@@H](C)CC)C(=O)N[C@@H](CCC(=O)O)C(=O)N[C@@H](CCC(=O)O)C(=O)N[C@@H](CO)C(=O)N[C@@H](CC(=O)O)C(=O)N[C@@H](CCCCN)C(=O)N[C@@H](CCCCN)C(=O)N[C@@H](CCCCN)C(=O)N[C@@H](CC(C)C)C(=O)N[C@@H](CCC(=O)O)C(=O)N[C@@H](C)C(=O)N[C@@H](C)C(=O)N[C@@H](C)C(=O)N[C@@H](CCCCN)C(=O)N[C@@H](CCCCN)C(N)=O [Compound 51] (Ac-SDELVNKKIEFDKKINQSLKKIEESDKKKLEAAAKK-NH2) yielded a Kd (hPIV-N51 (139-189)) of 51.4 nM, a Kd (hMPV-N46 (127-172)) of 14.4 nM and an EC50 (hMPV A2) of 18.8 nM. For the same compound, the EC50 (hMPV B1) was 3.82 nM.
CC[C@H](C)[C@H](NC(=O)[C@H](CCCCN)NC(=O)[C@H](CCCCN)NC(=O)[C@H](CC(C)C)NC(=O)[C@H](CO)NC(=O)[C@H](CCC(=O)O)NC(=O)[C@H](CCC(=O)O)NC(=O)[C@@H](NC(=O)[C@H](CCCCN)NC(=O)[C@H](CCCCN)NC(=O)[C@H](CC(N)=O)NC(=O)[C@@H](NC(=O)[C@H](CCC(=O)O)NC(=O)[C@H](CCC(=O)O)NC(=O)[C@@H](NC(=O)[C@H](CCCCN)NC(=O)[C@H](CCCCN)NC(=O)[C@H](CC(=O)O)NC(=O)[C@H](Cc1ccccc1)NC(=O)[C@H](CCC(=O)O)NC(=O)[C@H](CC(=O)O)NC(=O)[C@H](Cc1c[nH]c2ccccc12)NC(C)=O)[C@@H](C)CC)C(C)C)[C@@H](C)CC)C(=O)N[C@@H](CCC(=O)O)C(=O)N[C@@H](CCC(=O)O)C(=O)N[C@@H](CO)C(=O)N[C@@H](CC(=O)O)C(=O)N[C@@H](CCCCN)C(=O)N[C@@H](CCCCN)C(=O)N[C@@H](CC(C)C)C(=O)N[C@@H](CCC(=O)O)C(=O)N[C@@H](CCC(=O)O)C(=O)N[C@H](C(=O)N[C@@H](CC(N)=O)C(=O)N[C@@H](C)C(=O)N[C@@H](CCC(=O)O)C(=O)N[C@@H](C)C(=O)N[C@@H](C)C(=O)N[C@@H](C)C(=O)N[C@@H](CCCCN)C(=O)N[C@@H](CCCCNC(=O)CCC(=O)O[C@H]1CC[C@@]2(C)C(=CC[C@H]3[C@@H]4CC[C@H]([C@H](C)CCCC(C)C)[C@@]4(C)CC[C@@H]32)C1)C(N)=O)C(C)C [Compound 40] (Ac-WDEFDKKIEEVNKKIEESLKKIEESDKKLEEVNAEAAAKK(Succinyl(4-O-cholesteryl))-NH2) gave a Kd (hPIV-N51 (139-189)) of 2270 nM, a Kd (hMPV-N46 (127-172)) of 2470 nM and an EC50 (hMPV A2) of 13.8 nM. The EC50 (hMPV B1) was 7.47 nM.
“Ac-WDEFDASISQVNEKINQSLEEIRKSDELLHNVNALEAAAKK(Succinyl(4-O-cholesteryl))-NH2 [Compound 38]” gave a Kd (hPIV-N51 (139-189)) of 24500 nM, a Kd (hMPV-N46 (127-172)) of 392 nM and an EC50 (hMPV A2) of 128 nM. It also gave an EC50 (hMPV B1) of 16.6 nM.
“Ac-SLEQVNEKINQSLAFIRKSDEINQSDEEVNKSDELLEAAAKK-NH2 [Compound 50]” was tested, and the EC50 (hMPV A2) was 13.3 nM and the EC50 (hMPV B1) was 5.95 nM.
CC[C@H](C)[C@H](NC(=O)[C@H](CO)NC(=O)[C@H](C)NC(=O)[C@H](CC(=O)O)NC(=O)[C@H](Cc1ccccc1)NC(=O)[C@H](CCC(=O)O)NC(=O)[C@H](CC(=O)O)NC(=O)[C@H](Cc1c[nH]c2ccccc12)NC(C)=O)C(=O)N[C@@H](CCC(=O)O)C(=O)N[C@@H](CCC(=O)O)C(=O)N[C@H](C(=O)N[C@@H](CC(N)=O)C(=O)N[C@@H](CCCNC(=N)N)C(=O)N[C@@H](CCCNC(=N)N)C(=O)N[C@H](C(=O)N[C@@H](CCC(=O)O)C(=O)N[C@@H](CCC(=O)O)C(=O)N[C@@H](CO)C(=O)N[C@@H](CC(C)C)C(=O)N[C@@H](CCCNC(=N)N)C(=O)N[C@@H](CCCNC(=N)N)C(=O)N[C@H](C(=O)N[C@@H](CCC(=O)O)C(=O)N[C@@H](CCC(=O)O)C(=O)N[C@@H](CO)C(=O)N[C@@H](CC(=O)O)C(=O)N[C@@H](CCCNC(=N)N)C(=O)N[C@@H](CCCNC(=N)N)C(=O)N[C@@H](CC(C)C)C(=O)N[C@@H](CCC(=O)O)C(=O)N[C@@H](CCC(=O)O)C(=O)N[C@H](C(=O)N[C@@H](CCC(=O)O)C(=O)N[C@@H](C)C(=O)N[C@@H](C)C(=O)N[C@@H](C)C(=O)N[C@@H](CCCCN)C(=O)N[C@@H](CCCCNC(=O)CCC(=O)O[C@H]1CC[C@@]2(C)C(=CC[C@H]3[C@@H]4CC[C@H]([C@H](C)CCCC(C)C)[C@@]4(C)CC[C@@H]32)C1)C(N)=O)C(C)C)[C@@H](C)CC)[C@@H](C)CC)C(C)C [Compound 43] (Ac-WDEFDASIEEVNRRIEESLRRIEESDRRLEEVEAAAKK(Succinyl(4-O-cholesteryl))-NH2) showed a Kd (hPIV-N51 (139-189)) of 5720 nM, a Kd (hMPV-N46 (127-172)) of 71400 nM and an EC50 (hMPV A2) of 16.8 nM. The EC50 (hMPV B1) was 8.01 nM.
For CC[C@H](C)[C@H](NC(=O)[C@H](CCCCN)NC(=O)[C@H](CCCCN)NC(=O)[C@H](CC(C)C)NC(=O)[C@H](CO)NC(=O)[C@H](CCC(=O)O)NC(=O)[C@H](CCC(=O)O)NC(=O)[C@@H](NC(=O)[C@H](CCCCN)NC(=O)[C@H](CCCCN)NC(=O)[C@H](CC(N)=O)NC(=O)[C@@H](NC(=O)[C@H](CCC(=O)O)NC(=O)[C@H](CCC(=O)O)NC(=O)[C@@H](NC(=O)[C@H](CCCCN)NC(=O)[C@H](CCCCN)NC(=O)[C@H](CC(=O)O)NC(=O)[C@H](Cc1ccccc1)NC(=O)[C@H](CCC(=O)O)NC(=O)[C@H](CC(=O)O)NC(C)=O)[C@@H](C)CC)C(C)C)[C@@H](C)CC)C(=O)N[C@@H](CCC(=O)O)C(=O)N[C@@H](CCC(=O)O)C(=O)N[C@@H](CO)C(=O)N[C@@H](CC(=O)O)C(=O)N[C@@H](CCCCN)C(=O)N[C@@H](CCCCN)C(=O)N[C@@H](CC(C)C)C(=O)N[C@@H](CCC(=O)O)C(=O)N[C@@H](CCC(=O)O)C(=O)N[C@H](C(=O)N[C@@H](CCC(=O)O)C(=O)N[C@@H](C)C(=O)N[C@@H](C)C(=O)N[C@@H](C)C(=O)N[C@@H](CCCCN)C(=O)N[C@@H](CCCCNC(=O)CCC(=O)OC1CCC2(C)C(=CCC3C2CCC2(C)C(C(C)CCCC(C)C)CCC32)C1)C(N)=O)C(C)C (some centres unmarked) [Compound 21] (Ac-DEFDKKIEEVNKKIEESLKKIEESDKKLEEVEAAAKK(X1)-NH2), the EC50 (hMPV A2) was 11.2 nM and the EC50 (hMPV B1) was 4.92 nM.
